These results are taken from ChEMBL document CHEMBL1158646, “Potential Antitumor Agents: A Cytotoxic Cardenolide From Coronilla varia” (1979).

Structures are written as SMILES. In brackets after ≈: the same amount, converted by molar mass. Activity calls are given as the source filed them. The rule behind the calls is not given here.

As a reminder, the T/C is the result in the treated group divided by that in the control group, in per cent.

Test [1] deals with P388. The experiment in a line: Antitumor activity against mouse P388 cells in mouse assessed as median survival time at 8 mg/kg relative to control. The test is classed as functional, organism-based. Details: dose 8 mg/kg.
Test [2] is described as follows: Cytotoxicity against human 9KB cells. Format: functional. The settings on record: read-out: ED50 (the source's name).
For another test, the system named is B16. The experiment in a line: Cytotoxicity against mouse B16 cells. The test is classed as functional, cell-based.
The subject of another test is L1210. Nature of the test: Cytotoxicity against mouse L1210 cells. Format: functional, cell-based.
The subject of another test is Lewis lung carcinoma. Nature of the test: Cytotoxicity against mouse LLC cells. The test is classed as functional, cell-based.
The subject of test [3] is P388. The experiment in a line: Antitumor activity against mouse P388 cells in mouse assessed as median survival time at 1.25 mg/kg relative to control. Format: functional.

Turning to `C[C@]12CC[C@H]3[C@@H](CCC4=C[C@@H](O[C@@H]5OC[C@@H](O)[C@H](O)[C@H]5O)CC[C@@]43C=O)[C@@]1(O)CC[C@@H]2C1=CC(=O)OC1` [DEGLUCOHYRCANOSIDE], in the test on P388 [1], the result was inactive. The EC50 in test [2] was found to be 0.02 µg/mL (≈ 0.0386 µM).

Take `C[C@]12CC[C@H]3[C@@H](CCC4=C[C@@H](O[C@@H]5OC[C@@H](O[C@@H]6O[C@H](CO)[C@@H](O)[C@H](O)[C@H]6O)[C@H](O)[C@H]5O)CC[C@@]43C=O)[C@@]1(O)CC[C@@H]2C1=CC(=O)OC1` [HYRCANOSIDE]: the outcome with B16, with L1210 and in the test with Lewis lung carcinoma was inactive. In test [2], the EC50 is 0.1 µg/mL (≈ 0.147 µM). In the test with P388 [3], the T/C is recorded as 133%.
